Source: patent publication US20200392107A1, “CYCLIC AMINE DERIVATIVE AND MEDICAL USE THEREOF” (Toray Industries, Inc., priority 2018, published 2020)

Legend:
[1] = test system: IL-17 production in mouse splenocytes; experiment: Suppressive effect on IL-17 production by IL-23 stimulation in mouse splenocytes; assay type: cell-based; conditions: Splenocyte, 72 h, at 5 μmol/L of the test compound, human IL-23 10 ng/mL, cultured 3 days, read-out: IL-17 production inhibition rate (%)
Method: Using mouse splenocytes, the suppressive effect of the cyclic amine derivative (I) or a pharmacologically acceptable salt thereof on IL-17 production by IL-23 stimulation was evaluated by a partially modified method mentioned in The Journal of Biological Chemistry, 2003, Vol. 278, No. 3, p. 1910-1914.
A single cell suspension was prepared from the spleen of C57BL/6J mice (male or female, 6 to 30 weeks old) (Charles River Laboratories Japan, Inc. or CLEA Japan, Inc.) and splenocytes were prepared using Histopaque-1083 (Sigma-Aldrich Japan). The culture medium was used by adding 10% FBS (Gibco), 50 U/mL of penicillin-50 μg/mL of streptomycin (Gibco), 50 μmol/L of 2-mercaptoethanol (Gibco), and 100 U/mL of human IL-2 (Cell Science & Technology Institute, Inc.) to RPMI1640 medium (Gibco). A test compound was dissolved in DMSO and then diluted with the culture medium to have a final concentration of DMSO of 0.1% before use. Splenocytes (3×10^5 cells/well) prepared in the culture medium were seeded in wells of a 96-well flat-bottom plate (Corning Incorporated), the test compound and 10 ng/mL of human IL-23 (R & D systems, Inc.) were added thereto, and the cells were cultured at 37° C. under 5% CO2 for 3 days. A well without addition of human IL-23 and without addition of the test compound and a well with addition of human IL-23 and without addition of the test compound were prepared. After completion of the culture, the culture supernatant was collected and the IL-17 production amount in the supernatant was determined by ELISA method (R & D systems, Inc.).
The IL-17 production inhibition rate (%) was calculated from Formula (2).
IL-17 production inhibition rate (%)=(1−((IL-17 production amount with addition of IL-23 and with addition of the test compound)−(IL-17 production amount without addition of IL-23 and without addition of the test compound))/((IL-17 production amount with addition of IL-23 and without addition of the test compound)−(IL-17 production amount without addition of IL-23 and without addition of the test compound)))×100 (2).

[2] = biological target: T1, RORγ-LBD (GST-fused ligand-binding domain of RORγ) / coactivator TRAP220/DRIP-2 (Homo sapiens, UniProt P51449); experiment: Inhibitory effect on RORγ-coactivator binding (LanthaScreen TR-FRET RORγ Coactivator Assay); assay type: biochemical; conditions: at 33 μmol/L of the test compound; read-out: RORγ-coactivator binding inhibition rate (%)
T1 construct: purchased Invitrogen
T1 sequence (P51449 269-508 limits assumed): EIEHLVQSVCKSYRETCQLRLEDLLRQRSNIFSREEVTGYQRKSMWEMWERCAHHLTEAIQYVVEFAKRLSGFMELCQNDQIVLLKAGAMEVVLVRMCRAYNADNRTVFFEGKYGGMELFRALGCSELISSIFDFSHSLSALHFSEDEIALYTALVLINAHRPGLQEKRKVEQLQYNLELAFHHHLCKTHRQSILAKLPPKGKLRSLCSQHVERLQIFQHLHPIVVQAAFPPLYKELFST
Method: The inhibitory effect of the cyclic amine derivative (I) or a pharmacologically acceptable salt thereof on the binding between a ligand-binding domain of RORγ (hereinafter referred to as RORγ-LBD) and a coactivator was evaluated using Invitrogen's LanthaScreen™ TR-FRET Retinoid-Related Orphan Receptor (ROR) gamma Coactivator Assay kit utilizing time-resolved fluorescence energy transfer (TR-FRET).
A test compound was dissolved in DMSO and diluted with TR-FRET Coregulator Buffer D (Invitrogen) containing 5 mmol/L of DTT to have a final DMSO concentration of 1% before use. To each well of a 384-well black plate (Corning Inc.), 4 nmol/L of GST-fused RORγ-LBD (Invitrogen) diluted with the buffer mentioned above and the test compound were added. A well without addition of the test compound and without addition of GST-fused RORγ-LBD (background) and a well without addition of the test compound and with addition of GST-fused RORγ-LBD (control) were prepared. Next, 150 nmol/L of fluorescein-labeled TRAP220/DRIP-2 (Invitrogen) diluted with the buffer mentioned above and 32 nmol/L of terbium-labeled anti-GST antibody (Invitrogen) were added to each well. After incubating the plate at room temperature for 16 to 24 hours, the fluorescence at 495 nm and 520 nm when excited at 320 nm was measured for each well and the ratio (fluorescence value at 520 nm/fluorescence value at 495 nm) was calculated.
The fold change with addition of the test compound (ratio with addition of the test compound/ratio of the background), the fold change of the control (ratio of the control/ratio of the background), and the fold change of the background (ratio of the background/ratio of the background) were calculated, and then the inhibition rate of binding between RORγ-LBD and a coactivator (hereinafter referred to as RORγ-coactivator binding inhibition rate) (%) was calculated from Formula (1):
RORγ-coactivator binding inhibition rate (%)=(1−((Fold change with addition of the test compound)−(Fold change of the background))/((Fold change of the control)−(Fold change of the background)))×100 (1).

Compound | inhibition at 5 µM [1] [%] | inhibition at 33 µM [2] [%]
CC(=O)N1CCCC[C@@H]1C(=O)Nc1cc(Cl)c2c(c1)CCN2Cc1ccccc1C(F)(F)F [Example 6, (R)-1-acetyl-N-(7-chloro-1-(2-(trifluoromethyl)benzyl)indolin-5-yl)piperidine-2-carboxamide] | 91.6 | 85.2
CC(=O)N1CCCCC1C(=O)Nc1cc(Cl)c2c(c1)CCN2Cc1ccc(C(F)(F)F)cc1 (centres unmarked) [Example 10, 1-acetyl-N-(7-chloro-1-(4-(trifluoromethyl)benzyl)indolin-5-yl)piperidine-2-carboxamide] | 99.5 | 99.8
CC(=O)N1CCCC[C@@H]1C(=O)Nc1cc(Cl)c2c(c1)CCN(Cc1ccc(C(F)(F)F)cc1)C2 [Example 3, (R)-1-acetyl-N-(8-chloro-2-(4-(trifluoromethyl)benzyl)-1,2,3,4-tetrahydroisoquinolin-6-yl)piperidine-2-carboxamide] | 99.7 | 99.5
CC(=O)N1CCCC[C@@H]1C(=O)Nc1ccc2c(c1)CCCN2Cc1ccc(C(F)(F)F)cc1 [Example 2, (R)-1-acetyl-N-(1-(4-(trifluoromethyl)benzyl)-1,2,3,4-tetrahy-droquinolin-6-yl)piperidine-2-carboxamide] | 98.4 | 94.3
CC(=O)N1CCCC[C@@H]1C(=O)Nc1cc(Cl)c2c(c1)CCN2Cc1cccc(C(F)(F)F)c1 [Example 5, (R)-1-acetyl-N-(7-chloro-1-(3-(trifluoromethyl)benzyl)indolin-5-yl)piperidine-2-carboxamide] | 87.5 | 87.9
CC(=O)N1CCCC[C@@H]1C(=O)Nc1cc(Cl)c2c(c1)CCN2CCc1ccc(C(F)(F)F)cc1 [Example 7, (R)-1-acetyl-N-(7-chloro-1-(4-(trifluoromethyl)phenethyl)indolin-5-yl)piperidine-2-carboxamide] | 98.6 | 96
CC(=O)N1CCCC[C@@H]1C(=O)Nc1cc(Cl)c2c(c1)CCN2Cc1ccc(OC(F)(F)F)cc1 [Example 8, (R)-1-acetyl-N-(7-chloro-1-(4-(trifluoromethoxy)benzyl)in-dolin-5-yl)piperidine-2-carboxamide] | 100 | 99.4
